From patent publication US11667602B2, “Compounds and their use” (AstraZeneca AB, priority 2020, dated 2023)
Converted amounts (≈) assume the structure as drawn.

Assays:
[1] = Human Hepatocyte Stability (Test D); format: in vitro ADME; settings: human, cryopreserved pooled human hepatocytes (LiverPool 10-Donor), geometric mean if run multiple times
Procedure, shortened: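 Intrinsic clearance (μL/min/10^6 cells), derived as kV/N from the log-linear loss of parent compound. Compound incubated at 37 °C with cryopreserved pooled human hepatocytes, 0.25×10^6 cells in 0.25 mL L-15; dosing solution 100 μM in acetonitrile. Singlicate incubations, cassette LC-MS; repeats reported as geometric mean.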

[2] = Rat Hepatocyte Stability (Test E); format: in vitro ADME; settings: rat, hepatocytes, geometric mean if run multiple times
Procedure, shortened: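 Intrinsic clearance in rat hepatocytes, expressed as μl/min/10^6 cells, following the literature integrated DMPK panel method. Repeat determinations combined as geometric mean.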

[3] = Human Plasma Protein Binding (Test B); format: in vitro ADME; settings: fraction unbound (fu)
Procedure, shortened: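 Values given as % free (fu) in human plasma, using the method of Wernevik et al. (2020). For compounds tested more than once, the arithmetic mean is given.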

human RXFP1 = biological target: T1, human RXFP1 (Homo sapiens, UniProt Q9HBX9); test: RXFP1 Hu cAMP (Test A); format: cell-based; parameters: expressed in transfected cells; host or cells: Jump-In T-REx CHO-K1 cells (ThermoFisher), induced with 10 ng/ml doxycycline for 24 h; settings: RXFP1 Hu cAMP; for EC50: read-out: Test A EC50
T1 sequence (Q9HBX9 1-757): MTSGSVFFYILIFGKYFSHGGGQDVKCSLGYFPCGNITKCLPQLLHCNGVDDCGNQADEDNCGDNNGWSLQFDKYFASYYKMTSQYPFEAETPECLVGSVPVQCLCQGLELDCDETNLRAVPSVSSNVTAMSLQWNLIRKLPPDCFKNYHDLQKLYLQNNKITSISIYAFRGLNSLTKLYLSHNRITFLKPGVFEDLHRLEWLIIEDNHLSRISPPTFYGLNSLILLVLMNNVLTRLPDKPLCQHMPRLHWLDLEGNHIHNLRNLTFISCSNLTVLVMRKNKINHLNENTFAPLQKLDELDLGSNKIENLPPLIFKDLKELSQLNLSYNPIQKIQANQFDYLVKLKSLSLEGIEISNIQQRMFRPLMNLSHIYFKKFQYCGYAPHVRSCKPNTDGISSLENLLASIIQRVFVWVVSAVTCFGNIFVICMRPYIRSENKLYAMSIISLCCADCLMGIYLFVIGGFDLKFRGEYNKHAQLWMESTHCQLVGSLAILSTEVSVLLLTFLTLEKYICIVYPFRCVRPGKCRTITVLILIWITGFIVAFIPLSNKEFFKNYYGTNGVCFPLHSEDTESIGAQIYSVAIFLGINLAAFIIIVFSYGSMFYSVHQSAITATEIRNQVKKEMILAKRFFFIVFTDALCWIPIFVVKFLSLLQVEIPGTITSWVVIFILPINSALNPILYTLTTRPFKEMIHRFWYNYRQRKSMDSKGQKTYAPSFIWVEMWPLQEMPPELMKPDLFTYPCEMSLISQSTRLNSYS
Procedure, shortened: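 CHO-K1 (Jump-In T-REx), RXFP1 induced w/ 10 ng/ml doxycycline 24 h, cryopreserved. 0.5 mM IBMX final. cAMP by HTRF, 2 h RT, std curve.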

Solubility (Test F) = format: physicochemical; settings: arithmetic mean if run multiple times
Protocol: The assay was conducted according to the Solubility Assay described in pages 164-167 of Wernevik, J. et al., “A Fully Integrated Assay Panel for Early Drug Metabolism and Pharmacokinetics Profiling”, Assay and Drug Development Technologies, 2020, 18(4), 157-179. Data are reported in Table 36 as solubility ([…]. Where the assay was run multiple times for the same compound, the arithmetic mean is reported.

[4] = Human Liver Microsomal Stability (Test C); format: in vitro ADME; settings: human, liver microsomes
Procedure, shortened: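 CLint (μl/min/mg protein) derived from compound depletion in human liver microsomes following a published standardized early-DMPK protocol; replicate determinations given as arithmetic mean.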

hepatocyte CLint at 1 µM [1] | hepatocyte CLint [2] | Test B Human Plasma Protein Binding (% free) [3] | Test A Sinf (human RXFP1) | EC50 (human RXFP1) | solubility (Solubility (Test F)) | microsomal CLint [4] | Structure (SMILES)
3.1 µL/min/1e6 cells | 7.1 µL/min/1e6 cells | 3.4 % free | 107% | 0.015 µM | 960 µM (≈ 579 µg/mL) | 18 µL/min/mg | COc1cc(Cl)c(O[C@H]2CC[C@@](C)(C(=O)O)CC2)cc1C(=O)N[C@@H]1[C@H]2CC[C@H](C2)[C@@H]1C(=O)NCC(C)(C)C(F)(F)F [Example 409]
26 µL/min/1e6 cells | 21 µL/min/1e6 cells | 1.5 % free | 101% | 0.54 µM | 760 µM (≈ 478 µg/mL) | 31 µL/min/mg | COc1cc(F)c(O[C@H]2C[C@H](C(=O)O)C2)cc1C(=O)NC1[C@H]2CC[C@H](C2)[C@@H]1C(=O)Nc1cccc(S(=O)(=O)C(F)(F)F)c1 (some centres unmarked) [Example 443]
3.3 µL/min/1e6 cells | 7.9 µL/min/1e6 cells | 12 % free | 113% | 0.026 µM | 1000 µM (≈ 594 µg/mL) | 16 µL/min/mg | COc1cc(C#N)c(O[C@H]2CC[C@@](C)(C(=O)O)CC2)cc1C(=O)N[C@@H]1[C@H]2CC[C@H](C2)[C@@H]1C(=O)NCC(C)(C)C(F)(F)F [Example 624]
12 µL/min/1e6 cells | 13 µL/min/1e6 cells | 2.4 % free | 101% | 0.05 µM | 810 µM (≈ 453 µg/mL) | 120 µL/min/mg | CCC1(CNC(=O)[C@H]2[C@@H]3CC[C@@H](C3)[C@H]2NC(=O)c2cc(O[C@H]3CC[C@@](C)(C(=O)O)CC3)c(F)cc2OC)CCC1 [Example 617]
5.1 µL/min/1e6 cells | 17 µL/min/1e6 cells | 4.8 % free | 102% | 0.0098 µM | 900 µM (≈ 488 µg/mL) | 24 µL/min/mg | COc1cc(F)c(O[C@H]2CC[C@@](C)(C(=O)O)CC2)cc1C(=O)N[C@H]1[C@@H](C(=O)NCC2(C)CCC2)[C@@H]2C=C[C@H]1C2 [Example 417]

Continued, compound first:

Structure (SMILES) | hepatocyte CLint at 1 µM [1] | hepatocyte CLint [2] | Test B Human Plasma Protein Binding (% free) [3] | Test A Sinf (human RXFP1) | EC50 (human RXFP1) | solubility (Solubility (Test F)) | microsomal CLint [4]
COc1cc(F)c(Cc2cnn(CC(=O)O)c2)cc1C(=O)N[C@@H]1[C@H]2CC[C@H](C2)[C@@H]1C(=O)Nc1cccc(S(=O)(=O)C(F)(F)F)c1 [Example 220, 2-(4-(2-Fluoro-4-methoxy-5-(((1S,2R,3S,4R)-3-((3-((trifluoromethyl)sulfonyl)phenyl)carbamoyl)bicyclo[2.2.1]heptan-2-yl)carbamoyl)benzyl)-1H-pyrazol-1-yl)acetic acid] | 7.2 µL/min/1e6 cells | 14 µL/min/1e6 cells | 0.95 % free | 109% | 1.5 µM | 940 µM (≈ 613 µg/mL) | 10 µL/min/mg
COc1cc(-c2cc(C(=O)N[C@H]3[C@@H](C(=O)Nc4cccc(S(=O)(=O)C(F)(F)F)c4)[C@@H]4C=C[C@H]3C4)c(OC)cc2F)ccc1C(=O)O (racemic) [Example 226, rac-2′-Fluoro-3,4′-dimethoxy-5′-(((1R,2R,3S,4S)-3-((3-((trifluoromethyl)sulfonyl)phenyl)carbamoyl)bicyclo[2.2.1]hept-5-en-2-yl)carbamoyl)-[1,1′-biphenyl]-4-carboxylic acid] | 11 µL/min/1e6 cells | 16 µL/min/1e6 cells | 0.62 % free | 105% | 0.3 µM | 870 µM (≈ 576 µg/mL) | 12 µL/min/mg
COc1cc(F)c(-c2ccc(C[C@@H](C(=O)O)N(C)C)cc2)cc1C(=O)N[C@@H]1[C@H]2CC[C@H](C2)[C@@H]1C(=O)Nc1cccc(S(=O)(=O)C(F)(F)F)c1 (racemic) [Example 289, (S)-2-(Dimethylamino)-3-(2′-fluoro-4′-methoxy-5′-(((1RS,2SR,3RS,4SR)-3-((3-((trifluoromethyl)sulfonyl)phenyl)carbamoyl)bicyclo[2.2.1]heptan-2-yl)carbamoyl)-[1,1′-biphenyl]-4-yl)propanoic acid] | 7.2 µL/min/1e6 cells | 11 µL/min/1e6 cells | 1 % free | 112% | 0.47 µM | 36 µM (≈ 25.4 µg/mL) | 21 µL/min/mg
COc1cc(F)c(-c2ccc(C(=O)O)cc2)cc1C(=O)N[C@@H]1[C@H]2CC[C@H](C2)[C@@H]1C(=O)Nc1cccc(S(=O)(=O)C(F)(F)F)c1 [Example 250] | 32 µL/min/1e6 cells | 18 µL/min/1e6 cells | <0.32 % free | 101% | 0.19 µM | 900 µM (≈ 571 µg/mL) | 16 µL/min/mg
COc1cc(F)c(O[C@H]2CC[C@@](C)(C(=O)O)CC2)cc1C(=O)Nc1ccccc1C(=O)NCC1(C)CCC1 [Example 143, (1s,4s)-4-(2-Fluoro-4-methoxy-5-((2-(((1-methylcyclobutyl)methyl)-carbamoyl)phenyl)carbamoyl)phenoxy)-1-methylcyclohexane-1-carboxylic acid] | 6.9 µL/min/1e6 cells | 24 µL/min/1e6 cells | 0.68 % free | 130% |  | 1.6 µM (≈ 0.843 µg/mL) | < 3 µL/min/mg
COc1cc(F)c(O[C@H]2CC[C@@H](C(=O)O)CC2)cc1C(=O)N[C@@H]1[C@H]2CC[C@H](C2)[C@@H]1C(=O)Nc1ccc(F)c(C(F)(F)F)c1 [Example 179, (1S,4s)-4-(2-Fluoro-5-(((1S,2R,3S,4R)-3-((4-fluoro-3-(trifluoromethyl)phenyl)carbamoyl)bicyclo[2.2.1]heptan-2-yl)carbamoyl)-4-methoxyphenoxy)cyclohexane-1-carboxylic acid] | 13 µL/min/1e6 cells | 32 µL/min/1e6 cells | 1 % free | 106% | 0.016 µM | > 800 µM | 42 µL/min/mg
COc1cc(C#N)c(O[C@H]2CC[C@@](C)(C(=O)O)CC2)cc1C(=O)N[C@@H]1[C@H]2CC[C@H](C2)[C@@H]1C(=O)NCC(F)(F)C(F)(F)F [Example 102] | 1.9 µL/min/1e6 cells | 14 µL/min/1e6 cells | 12 % free | 122% | 0.16 µM | 820 µM (≈ 493 µg/mL) | 4.4 µL/min/mg
COc1cc(F)c(-c2cccc(C(=O)O)c2)cc1C(=O)N[C@H]1[C@@H](C(=O)Nc2ccc(F)c(S(=O)(=O)C(F)(F)F)c2)[C@@H]2C=C[C@H]1C2 (racemic) [Example 297] | 9.4 µL/min/1e6 cells | 12 µL/min/1e6 cells | <0.33 % free | 98% | 0.12 µM | 8 µM (≈ 5.2 µg/mL) | 9.1 µL/min/mg
COc1cc(F)c(O[C@H]2CC[C@@](C)(C(=O)O)CC2)cc1C(=O)Nc1cnccc1C(=O)NCC1(C)CCC1 [Example 150, (1s,4s)-4-(2-Fluoro-4-methoxy-5-((4-(((1-methylcyclobutyl)methyl)carbamoyl)pyridin-3-yl)carbamoyl)phenoxy)-1-methylcyclohexane-1-carboxylic acid] | 4.9 µL/min/1e6 cells | 39 µL/min/1e6 cells | 1.8 % free | 95% | 0.46 µM | 16 µM (≈ 8.44 µg/mL) | < 3 µL/min/mg
COc1cc(F)c(-c2ccn(CCC(=O)O)c(=O)c2)cc1C(=O)N[C@@H]1[C@H]2CC[C@H](C2)[C@@H]1C(=O)Nc1cccc(S(=O)(=O)C(F)(F)F)c1 [Example 249] | 11 µL/min/1e6 cells | 15 µL/min/1e6 cells | 3.4 % free | 113% | 0.32 µM | 190 µM (≈ 129 µg/mL) | 43 µL/min/mg
